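Where inhibition never reached the appropriate level, the endpoint shown equals the highest concentration tested. Otherwise, values were interpolated linearly from a five-concentration, 48-hour dose response in 96-well plates. GI50: concentration for 50% inhibition of growth.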 Calls of active or inactive are those of the source. No stated cut-off is given here; in the data, active = GI50 up to about 1.1 µM and inactive = higher.
Columns and labels:
Assay in all cases: NCI-60 cell line screen, 48 h
[1] = test system: TK-10
[2] = test system: DMS-273
[3] = test system: HOP-62
[4] = test system: OVCAR-5
[5] = test system: SK-MEL-5
[6] = test system: DLD-1
[7] = test system: ACHN
[8] = test system: OVCAR-3
[9] = test system: HCT-116
[10] = test system: LOX IMVI
[11] = test system: M14
[12] = test system: NCI-H460
[13] = test system: NCI-H226
[14] = test system: NCI-H23
[15] = test system: SK-OV-3
[16] = test system: A549
[17] = test system: SK-MEL-28
[18] = test system: OVCAR-4
[19] = test system: SW-620
[20] = test system: HOP-92
[21] = test system: HT-29
[22] = test system: HL-60
[23] = test system: CCRF-CEM
[24] = test system: DMS-114
[25] = test system: KM12
[26] = test system: SF-295
[27] = test system: UACC-62
[28] = test system: RXF 631
[29] = test system: HCT-15
[30] = test system: SN12C
[31] = test system: EKVX
[32] = test system: OVCAR-8
[33] = test system: XF498
[34] = test system: RXF 393
[35] = test system: U-251
[36] = test system: SNB-19
[37] = test system: HOP-18
[38] = test system: K562
[39] = test system: RPMI-8226
[40] = test system: 786-0
[41] = test system: HCC 2998
[42] = test system: SF-268
[43] = test system: NCI-H522
[44] = test system: Malme-3M
[45] = test system: CAKI-1
[46] = test system: COLO 205
[47] = test system: SK-MEL-2
[48] = test system: KM-20L2
[49] = test system: SF-539
[50] = test system: M19-MEL
[51] = test system: SNB-75
[52] = test system: A498
[53] = test system: IGROV-1
[54] = test system: MOLT-4
[55] = test system: LXFL 529
[56] = test system: UO-31
[57] = test system: UACC-257
[58] = test system: SNB-78
[59] = test system: SR

O=C(O)CCNCCCNCCC(=O)O
GI50 [1]: > 100 µM (inactive) | GI50 [2]: > 100 µM (inactive) | GI50 [3]: > 100 µM (inactive) | GI50 [4]: > 100 µM (inactive) | GI50 [5]: > 100 µM (inactive) | GI50 [6]: > 100 µM (inactive) | GI50 [7]: > 100 µM (inactive) | GI50 [8]: > 100 µM (inactive) | GI50 [9]: > 100 µM (inactive) | GI50 [10]: > 100 µM (inactive) | GI50 [11]: > 100 µM (inactive) | GI50 [12]: > 100 µM (inactive) | GI50 [13]: > 100 µM (inactive) | GI50 [14]: > 100 µM (inactive) | GI50 [15]: > 100 µM (inactive) | GI50 [16]: > 100 µM (inactive) | GI50 [17]: > 100 µM (inactive) | GI50 [18]: > 100 µM (inactive) | GI50 [19]: > 100 µM (inactive) | GI50 [20]: > 100 µM (inactive) | GI50 [21]: > 100 µM (inactive) | GI50 [22]: > 100 µM (inactive) | GI50 [23]: > 100 µM (inactive) | GI50 [24]: > 100 µM (inactive) | GI50 [25]: > 100 µM (inactive) | GI50 [26]: > 100 µM (inactive) | GI50 [27]: > 100 µM (inactive) | GI50 [28]: > 100 µM (inactive) | GI50 [29]: > 100 µM | GI50 [30]: > 100 µM (inactive) | GI50 [31]: > 100 µM (inactive) | GI50 [32]: > 100 µM (inactive) | GI50 [33]: > 100 µM (inactive) | GI50 [34]: > 100 µM (inactive) | GI50 [35]: > 100 µM (inactive) | GI50 [36]: > 100 µM (inactive) | GI50 [37]: > 100 µM (inactive) | GI50 [38]: > 100 µM (inactive) | GI50 [39]: > 100 µM (inactive) | GI50 [40]: > 100 µM (inactive) | GI50 [41]: > 100 µM (inactive) | GI50 [42]: > 100 µM (inactive) | GI50 [43]: > 100 µM (inactive) | GI50 [44]: > 100 µM (inactive) | GI50 [45]: > 100 µM (inactive) | GI50 [46]: > 100 µM (inactive) | GI50 [47]: > 100 µM (inactive) | GI50 [48]: > 100 µM (inactive) | GI50 [49]: > 100 µM (inactive) | GI50 [50]: > 100 µM (inactive) | GI50 [51]: 66.8 µM (inactive) | GI50 [52]: > 100 µM (inactive) | GI50 [53]: > 100 µM (inactive) | GI50 [54]: > 100 µM (inactive) | GI50 [55]: > 100 µM (inactive)

CCOc1ccc2c(c1)[n+]([O-])c(-c1ccccc1Cl)c(N)[n+]2[O-]
GI50 [2]: > 100 µM (inactive) | GI50 [3]: > 100 µM (inactive) | GI50 [4]: > 100 µM (inactive) | GI50 [5]: 90.2 µM (inactive) | GI50 [6]: > 100 µM (inactive) | GI50 [7]: > 100 µM (inactive) | GI50 [8]: > 100 µM (inactive) | GI50 [9]: > 100 µM (inactive) | GI50 [11]: > 100 µM (inactive) | GI50 [56]: > 100 µM (inactive) | GI50 [12]: > 100 µM (inactive) | GI50 [13]: > 100 µM (inactive) | GI50 [14]: > 100 µM (inactive) | GI50 [15]: > 100 µM (inactive) | GI50 [16]: > 100 µM (inactive) | GI50 [17]: > 100 µM (inactive) | GI50 [18]: > 100 µM (inactive) | GI50 [19]: > 100 µM (inactive) | GI50 [20]: > 100 µM (inactive) | GI50 [21]: > 100 µM (inactive) | GI50 [22]: 56.5 µM (inactive) | GI50 [23]: 48.2 µM (inactive) | GI50 [24]: > 100 µM (inactive) | GI50 [25]: > 100 µM (inactive) | GI50 [26]: > 100 µM (inactive) | GI50 [28]: > 100 µM (inactive) | GI50 [30]: > 100 µM (inactive) | GI50 [31]: > 100 µM (inactive) | GI50 [57]: > 100 µM (inactive) | GI50 [32]: > 100 µM (inactive) | GI50 [33]: > 100 µM (inactive) | GI50 [34]: > 100 µM (inactive) | GI50 [35]: > 100 µM (inactive) | GI50 [36]: > 100 µM (inactive) | GI50 [37]: > 100 µM (inactive) | GI50 [38]: > 100 µM (inactive) | GI50 [40]: > 100 µM (inactive) | GI50 [42]: > 100 µM (inactive) | GI50 [43]: 17.4 µM (inactive) | GI50 [44]: > 100 µM (inactive) | GI50 [45]: > 100 µM (inactive) | GI50 [46]: > 100 µM (inactive) | GI50 [47]: > 100 µM (inactive) | GI50 [48]: > 100 µM (inactive) | GI50 [58]: > 100 µM (inactive) | GI50 [49]: > 100 µM (inactive) | GI50 [50]: > 100 µM (inactive) | GI50 [59]: 94 µM (inactive) | GI50 [51]: 80 µM (inactive) | GI50 [52]: > 100 µM (inactive) | GI50 [53]: > 100 µM (inactive) | GI50 [54]: 74 µM (inactive) | GI50 [55]: > 100 µM (inactive)

COC(=O)CC(=O)C[P+](c1ccccc1)(c1ccccc1)c1ccccc1
GI50 [1]: > 218 µM (inactive) | GI50 [2]: > 218 µM (inactive) | GI50 [3]: > 218 µM (inactive) | GI50 [5]: 158 µM (inactive) | GI50 [6]: 194 µM (inactive) | GI50 [7]: > 218 µM (inactive) | GI50 [8]: 69.7 µM (inactive) | GI50 [9]: 60.7 µM (inactive) | GI50 [10]: > 218 µM (inactive) | GI50 [12]: 148 µM (inactive) | GI50 [13]: 180 µM (inactive) | GI50 [14]: 141 µM (inactive) | GI50 [15]: > 218 µM (inactive) | GI50 [16]: 197 µM (inactive) | GI50 [17]: 196 µM (inactive) | GI50 [19]: 121 µM (inactive) | GI50 [20]: 102 µM (inactive) | GI50 [21]: 121 µM (inactive) | GI50 [22]: 48.9 µM (inactive) | GI50 [23]: 55.3 µM (inactive) | GI50 [24]: > 218 µM (inactive) | GI50 [25]: > 218 µM (inactive) | GI50 [26]: 116 µM (inactive) | GI50 [27]: 178 µM (inactive) | GI50 [28]: > 218 µM (inactive) | GI50 [29]: 56.5 µM | GI50 [30]: 95.3 µM (inactive) | GI50 [31]: > 218 µM (inactive) | GI50 [57]: 114 µM (inactive) | GI50 [32]: 150 µM (inactive) | GI50 [33]: 45.4 µM (inactive) | GI50 [34]: > 218 µM (inactive) | GI50 [35]: > 218 µM (inactive) | GI50 [36]: > 218 µM (inactive) | GI50 [37]: 39.8 µM (inactive) | GI50 [38]: 68.5 µM (inactive) | GI50 [39]: 63.5 µM (inactive) | GI50 [40]: > 218 µM (inactive) | GI50 [41]: > 218 µM (inactive) | GI50 [42]: > 218 µM (inactive) | GI50 [43]: 37.7 µM (inactive) | GI50 [44]: 192 µM (inactive) | GI50 [45]: > 218 µM (inactive) | GI50 [46]: 168 µM (inactive) | GI50 [47]: > 218 µM (inactive) | GI50 [48]: > 218 µM (inactive) | GI50 [49]: 197 µM (inactive) | GI50 [50]: 209 µM (inactive) | GI50 [59]: 58.1 µM (inactive) | GI50 [53]: > 218 µM (inactive) | GI50 [54]: 74 µM (inactive) | GI50 [55]: 89.9 µM (inactive)

— ChEMBL document CHEMBL1201862, “PubChem BioAssay data set” (2004)
